In assay [1] the test system is T1, SuSy3-haplotype#9.
T1 construct: natural wild-species haplotype, full length (805 aa), in pDR195, expressed in Saccharomyces cerevisiae 22574d, IEX- and IMAC-purified; equals S. lycopersicum SuSy3 haplotype#1 with S53A/S106I/E727D/K741E (natural differences)
Nature of the assay: sucrose cleavage; UDP-glucose quantified by UDP-glucose dehydrogenase / NADH; Michaelis-Menten fit. Conditions: 4 mM UDP, 20 mM HEPES pH 7.5, 25 °C; IMAC-purified. The class given is biochemical, Solanum arcanum. An excerpt:
sucrose cleavage; UDP-glucose quantified by UDP-glucose dehydrogenase / NADH; Michaelis-Menten fit on SuSy3-haplotype#9

In assay [2] the test system is T2, SuSy3-haplotype#10.
T2 construct: natural wild-species haplotype, full length (805 aa), in pDR195, expressed in Saccharomyces cerevisiae 22574d, IEX-purified only; equals S. lycopersicum SuSy3 haplotype#1 with S53A/S106I/Q349L/E727D/K741E (natural differences)
The assay is described as above. The class given is biochemical, Solanum neorickii. The note with it: 4 mM UDP, 20 mM HEPES pH 7.5, 25 °C; IEX-purified only (lower purity). From the text: sucrose cleavage; UDP-glucose quantified by UDP-glucose dehydrogenase / NADH; Michaelis-Menten fit on SuSy3-haplotype#10

The text below walks through data of PMC6205638, “Exploring natural genetic variation in tomato sucrose synthases on the basis of increased kinetic properties” (PLoS ONE, 2018).

Usually Km stands for the concentration of substrate that gives half-maximal velocity. With `OC[C@H]1O[C@@](CO)(O[C@H]2O[C@H](CO)[C@@H](O)[C@H](O)[C@H]2O)[C@@H](O)[C@@H]1O` [sucrose], the Km in assay [1] was 33 ± 9 mM; in assay [2], 58 ± 14 mM.
